Reference: PubChem BioAssay AID1963833 (Molecular Pharmacology Branch, DTP, NCI, 2024)
pIC50: −log10 of the molar value.

System: 883617-216-R-J1-PDC complex spheroid viability
Assay: Anticancer human tumor 883617-216-R-J1-PDC patient-derived bladder carcinoma cell line growth inhibition [POLQ]
Details: for pIC50: curve of first compound; for viability, T/C: stronger effect = lower value
Method in brief: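 Three-cell-type spheroids modelling solid tumor plus stroma served as the readout system; POL inhibitors were tested individually and in combination, concentration ranges set by clinical Cmax where known.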

[1] = second compound 0.0316 µM, first compound 0.0316 µM
[2] = second compound 0.0316 µM, first compound 0.1 µM
[3] = second compound 0.0316 µM, first compound 0.316 µM
[4] = second compound 0.0316 µM, first compound 1 µM
[5] = second compound 0.0316 µM, first compound 3.16 µM
[6] = second compound 0.0316 µM, first compound 10 µM
[7] = second compound 0.1 µM, first compound 0.0316 µM
[8] = second compound 0.1 µM, first compound 0.1 µM
[9] = second compound 0.1 µM, first compound 0.316 µM
[10] = second compound 0.1 µM, first compound 1 µM
[11] = second compound 0.1 µM, first compound 3.16 µM
[12] = second compound 0.1 µM, first compound 10 µM
[13] = second compound 0.316 µM, first compound 0.0316 µM
[14] = second compound 0.316 µM, first compound 0.1 µM
[15] = second compound 0.316 µM, first compound 0.316 µM
[16] = second compound 0.316 µM, first compound 1 µM
[17] = second compound 0.316 µM, first compound 3.16 µM
[18] = second compound 0.316 µM, first compound 10 µM
[19] = second compound 1 µM, first compound 0.0316 µM
[20] = second compound 1 µM, first compound 0.1 µM
[21] = second compound 1 µM, first compound 0.316 µM
[22] = second compound 1 µM, first compound 1 µM
[23] = second compound 1 µM, first compound 3.16 µM
[24] = second compound 1 µM, first compound 10 µM
[25] = second compound 3.16 µM, first compound 0.0316 µM
[26] = second compound 3.16 µM, first compound 0.1 µM
[27] = second compound 3.16 µM, first compound 0.316 µM
[28] = second compound 3.16 µM, first compound 1 µM
[29] = second compound 3.16 µM, first compound 3.16 µM
[30] = second compound 3.16 µM, first compound 10 µM
[31] = second compound 10 µM, first compound 0.0316 µM
[32] = second compound 10 µM, first compound 0.1 µM
[33] = second compound 10 µM, first compound 0.316 µM
[34] = second compound 10 µM, first compound 1 µM
[35] = second compound 10 µM, first compound 3.16 µM
[36] = second compound 10 µM, first compound 10 µM
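Further: spheroids exposed to compounds for seven days before readout.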
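Wherever viability, T/C is given: 100% = DMSO vehicle control viability.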

In the case of CC1COCCN1c1cc(-c2ccnn2C)c2ccnc(-c3ccn[nH]3)c2n1 (stereo unspecified) + COC1C(OC(N)=O)C(O)C(Oc2ccc3c(O)c(NC(=O)c4ccc(O)c(CC=C(C)C)c4)c(=O)oc3c2C)OC1(C)C, the pIC50 (second compound 0.0316 µM) was 6.53, the pIC50 (second compound 0.1 µM) was 6.55 and the pIC50 (second compound 0.316 µM) was 6.91. The pIC50 (second compound 1 µM) was 6.81, the pIC50 (second compound 3.16 µM) was 6.81 and the pIC50 (second compound 10 µM) was 6.86. For the same compound, the viability, T/C [1] was 89.7%, the viability, T/C [2] was 63.8% and the viability, T/C [3] was 53.1%. For the same compound, the viability, T/C [4] was 37%, the viability, T/C [5] was 28.1% and the viability, T/C [6] was 30.7%. For the same compound, the viability, T/C [7] was 83.2%, the viability, T/C [8] was 62.9% and the viability, T/C [9] was 49.5%. It also gave a viability, T/C [10] of 37.7%, a viability, T/C [11] of 31.7% and a viability, T/C [12] of 27%. The viability, T/C [13] was 91.2%, the viability, T/C [14] was 51% and the viability, T/C [15] was 38.6%. It also gave a viability, T/C [16] of 40.8%, a viability, T/C [17] of 33.1% and a viability, T/C [18] of 27.3%. For the same compound, the viability, T/C [19] was 82.7%, the viability, T/C [20] was 54.3% and the viability, T/C [21] was 41.7%. For the same compound, the viability, T/C [22] was 32.5%, the viability, T/C [23] was 26.5% and the viability, T/C [24] was 24.4%. It also gave a viability, T/C [25] of 86.3%, a viability, T/C [26] of 53.3% and a viability, T/C [27] of 44%. The viability, T/C [28] was 34.8%, the viability, T/C [29] was 29.6% and the viability, T/C [30] was 29.5%. It also gave a viability, T/C [31] of 91.1%, a viability, T/C [32] of 54.4% and a viability, T/C [33] of 39.2%. For the same compound, the viability, T/C [34] was 32.2%, the viability, T/C [35] was 29.8% and the viability, T/C [36] was 32.3%.

In the case of CCCS(=O)(=O)Nc1ccc(F)c(C(=O)c2c[nH]c3ncc(-c4ccc(Cl)cc4)cc23)c1F + COC1C(OC(N)=O)C(O)C(Oc2ccc3c(O)c(NC(=O)c4ccc(O)c(CC=C(C)C)c4)c(=O)oc3c2C)OC1(C)C, the pIC50 (second compound 0.0316 µM) was 5.08, the pIC50 (second compound 0.1 µM) was 5.02 and the pIC50 (second compound 0.316 µM) was < 5.00. The pIC50 (second compound 1 µM) was 5.04, the pIC50 (second compound 3.16 µM) was < 5.00 and the pIC50 (second compound 10 µM) was 5.05. It also gave a viability, T/C [1] of 90.3%, a viability, T/C [2] of 103% and a viability, T/C [3] of 103%. The viability, T/C [4] was 94.2%, the viability, T/C [5] was 84.6% and the viability, T/C [6] was 42.9%. For the same compound, the viability, T/C [7] was 105%, the viability, T/C [8] was 119% and the viability, T/C [9] was 108%. It also gave a viability, T/C [10] of 105%, a viability, T/C [11] of 76.8% and a viability, T/C [12] of 49%. It also gave a viability, T/C [13] of 102%, a viability, T/C [14] of 102% and a viability, T/C [15] of 102%. It also gave a viability, T/C [16] of 103%, a viability, T/C [17] of 90% and a viability, T/C [18] of 50.1%. The viability, T/C [19] was 103%, the viability, T/C [20] was 93.9% and the viability, T/C [21] was 106%. It also gave a viability, T/C [22] of 98.5%, a viability, T/C [23] of 100% and a viability, T/C [24] of 45.3%. It also gave a viability, T/C [25] of 94.8%, a viability, T/C [26] of 88% and a viability, T/C [27] of 103%. It also gave a viability, T/C [28] of 105%, a viability, T/C [29] of 96.4% and a viability, T/C [30] of 56.4%. For the same compound, the viability, T/C [31] was 106%, the viability, T/C [32] was 96.7% and the viability, T/C [33] was 97.3%. The viability, T/C [34] was 103%, the viability, T/C [35] was 93.2% and the viability, T/C [36] was 45.4%.

CNCc1ccc(-c2[nH]c3cc(F)cc4c3c2CCNC4=O)cc1 + COC1C(OC(N)=O)C(O)C(Oc2ccc3c(O)c(NC(=O)c4ccc(O)c(CC=C(C)C)c4)c(=O)oc3c2C)OC1(C)C was tested, and the pIC50 (second compound 0.0316 µM) was < 5.00, the pIC50 (second compound 0.1 µM) was < 5.00 and the pIC50 (second compound 0.316 µM) was < 5.00. For the same compound, the pIC50 (second compound 1 µM) was < 5.00, the pIC50 (second compound 3.16 µM) was < 5.00 and the pIC50 (second compound 10 µM) was < 5.00. For the same compound, the viability, T/C [1] was 109%, the viability, T/C [2] was 104% and the viability, T/C [3] was 101%. For the same compound, the viability, T/C [4] was 97.9%, the viability, T/C [5] was 95.3% and the viability, T/C [6] was 80.7%. For the same compound, the viability, T/C [7] was 107%, the viability, T/C [8] was 97.3% and the viability, T/C [9] was 107%. It also gave a viability, T/C [10] of 101%, a viability, T/C [11] of 104% and a viability, T/C [12] of 98.6%. The viability, T/C [13] was 116%, the viability, T/C [14] was 98.9% and the viability, T/C [15] was 104%. For the same compound, the viability, T/C [16] was 106%, the viability, T/C [17] was 103% and the viability, T/C [18] was 94%. It also gave a viability, T/C [19] of 104%, a viability, T/C [20] of 104% and a viability, T/C [21] of 103%. The viability, T/C [22] was 90.4%, the viability, T/C [23] was 98% and the viability, T/C [24] was 87.9%. For the same compound, the viability, T/C [25] was 103%, the viability, T/C [26] was 92.8% and the viability, T/C [27] was 102%. For the same compound, the viability, T/C [28] was 87.2%, the viability, T/C [29] was 107% and the viability, T/C [30] was 92.9%. The viability, T/C [31] was 110%, the viability, T/C [32] was 97.2% and the viability, T/C [33] was 95.4%. For the same compound, the viability, T/C [34] was 91.9%, the viability, T/C [35] was 94.7% and the viability, T/C [36] was 95.6%.
